Assay: Tolerability of intravenous infusion rates in healthy subjects
Format: in vivo, human
Conditions: i.v., all infusion rates used (100, 200, 600 mg/min)
From the text: The following results were obtained here. 1.

O=C(O)CCCCC1CCSS1 (stereo not drawn) [α-lipoic acid]
tolerability of infusion rate: excellently tolerated
